Assay results taken from patent US20230047816A1 (priority 2018, published 2023).

Experiments:
[1] = molecular target: Recombinant full length human PFKFB3 (Homo sapiens, UniProt Q16875); assay: PFKFB3 kinase activity assay (ADP production, ADP-Glo)
[2] = molecular target: Recombinant full length human PFKFB4 (Homo sapiens, UniProt Q16877); assay: PFKFB4 kinase activity assay (ADP production, ADP-Glo)
neurons = assay: Neuroprotection, protection factor, b-amyloid treatment; format: cell-based; settings: Treatment beta-amyloid, 24 hours
Method: For NMDAR activation, neurons at 8 days in vitro were incubated 100 μM NMDA (plus 10 μM glycine) for 10 minutes. Neurons were then washed and further incubated in culture medium with the PFKFB3 inhibitors for 24 hours. For b-amyloid treatment, neurons at 8 days in vitro were incubated with […] b-amyloid plus the PFKFB3 inhibitors for 24 hours. The Protection factor was estimated as [AMC(beta-A)−AMC(DMSO)]/[AMC(beta-A)−AMC(Test article)] or [AMC(beta-A)−AMC(DMSO)]/[AMC(NMDA)−AMC(Test article)], where:
AMC(DMSO)—% dead neuron in case of DMSO treatment
AMC(beta—A)—% dead neuron in case of b—amyloid treatment
AMC(Test article)—% dead neuron in case of PFKFB3 inhibitors treatment.

Recombinant full length human PFKFB3, sequence (Q16875 whole entry): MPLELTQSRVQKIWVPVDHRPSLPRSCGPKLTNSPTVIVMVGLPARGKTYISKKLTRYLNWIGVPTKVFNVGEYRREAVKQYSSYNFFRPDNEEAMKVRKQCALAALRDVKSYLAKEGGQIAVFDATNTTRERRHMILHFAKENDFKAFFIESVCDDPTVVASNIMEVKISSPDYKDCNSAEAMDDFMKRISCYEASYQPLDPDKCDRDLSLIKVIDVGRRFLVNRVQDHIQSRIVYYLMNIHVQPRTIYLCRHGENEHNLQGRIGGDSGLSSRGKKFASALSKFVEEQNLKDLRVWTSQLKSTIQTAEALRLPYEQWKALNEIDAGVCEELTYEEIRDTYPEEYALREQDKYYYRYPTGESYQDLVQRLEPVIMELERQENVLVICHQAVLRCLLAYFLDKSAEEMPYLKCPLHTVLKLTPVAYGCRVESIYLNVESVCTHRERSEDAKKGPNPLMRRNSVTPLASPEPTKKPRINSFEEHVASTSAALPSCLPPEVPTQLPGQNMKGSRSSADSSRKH
Recombinant full length human PFKFB4, sequence (Q16877 whole entry): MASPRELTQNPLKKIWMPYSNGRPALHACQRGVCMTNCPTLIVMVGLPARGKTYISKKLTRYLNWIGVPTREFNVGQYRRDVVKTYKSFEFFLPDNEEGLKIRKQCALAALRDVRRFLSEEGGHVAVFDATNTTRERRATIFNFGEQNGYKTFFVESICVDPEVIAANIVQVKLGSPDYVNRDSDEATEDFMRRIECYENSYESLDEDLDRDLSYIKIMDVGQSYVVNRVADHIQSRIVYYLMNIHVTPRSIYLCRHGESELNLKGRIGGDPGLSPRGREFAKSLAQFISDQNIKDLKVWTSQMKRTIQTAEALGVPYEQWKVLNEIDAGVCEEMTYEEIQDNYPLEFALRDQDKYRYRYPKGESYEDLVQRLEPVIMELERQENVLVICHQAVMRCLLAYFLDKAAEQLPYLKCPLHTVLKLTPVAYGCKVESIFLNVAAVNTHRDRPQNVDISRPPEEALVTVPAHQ

IC50 [1]	IC50 [2]	Compound	Protection factors (neurons)
< 500 nM	< 500 nM	O=C(O)c1ccc(-c2ccc(F)c(F)c2)cc1N1C(=O)c2ccc(-c3c[nH]nn3)cc2C1=O [Compound 82, 3′,4′-Difluoro-3-[1,3-dioxo-5-(1H-[1,2,3]triazol-4-yl)-1,3-dihydroisoindol-2-yl]biphenyl-4-carboxylic Acid]	–
< 500 nM	< 500 nM	O=C(O)c1ccc(-c2ccc(F)c(F)c2)cc1N1C(=O)c2cc(Cl)c(-c3cnn[nH]3)cc2C1=O [Compound 144b, 3-[5-Chloro-1,3-dioxo-6-(1H-1,2,3-triazol-5-yl)-2,3-dihydro-1H-isoindol-2-yl]-3′,4′-difluoro[1,1′-biphenyl]-4-carboxylic Acid]	–
< 500 nM	< 500 nM	O=C(O)c1ccc(-c2ccccc2)cc1N1C(=O)c2cc(Cl)c(-c3cnn[nH]3)cc2C1=O [Compound 144c, 3-[5-Chloro-1,3-dioxo-6-(1H-1,2,3-triazol-5-yl)-2,3-dihydro-1H-isoindol-2-yl][1,1′-biphenyl]-4-carboxylic Acid]	–
< 500 nM	< 500 nM	O=C(O)c1ccc2c(c1)C(=O)N(c1cc(-c3ccc(Cl)c(F)c3)ccc1C(=O)O)C2=O [Compound 143, 2-(4-Carboxy-4′-chloro-3′-fluoro[1,1′-biphenyl]-3-yl)-1,3-dioxo-2,3-dihydro-1H-isoindole-5-carboxylic acid]	–
< 500 nM	< 500 nM	O=C(O)c1ccc2c(c1)C(=O)N(c1ccc(-c3ccccc3)cc1C(=O)O)C2=O [Compound 134, 2-(3-Carboxybiphenyl-4-yl)-1,3-dioxo-2,3-dihydro-1H-isoindole-5-carboxylic acid]	–
< 500 nM	–	N#Cc1c(N2C(=O)c3ccc(C(=O)O)cc3C2=O)sc(-c2ccccc2)c1-c1ccccc1 [Compound 133, 2-(3-Cyano-4,5-diphenylthiophen-2-yl)-1,3-dioxo-2,3-dihydro-1H-isoindole-5-carboxylic acid]	–
< 20000 nM	–	COC(=O)c1ccc(-c2ccccc2)cc1N1C(=O)c2ccc(C(=O)NS(C)(=O)=O)cc2C1=O [Example 41]	–
2000 to 5000 nM	–	COc1ccc(-c2c(C)sc(N3C(=O)c4ccc(C(=O)N[C@@H](CO)C(=O)O)cc4C3=O)c2C#N)cc1 [Example 16]	–
500 to 2000 nM	–	COC(=O)c1ccc(-c2ccccc2)cc1N1C(=O)c2ccc(C(=O)O)cc2C1=O [Example 37]	–
5000 to 20000 nM	–	O=C(O)c1ccc(-c2cnn[nH]2)cc1CNc1cc(-c2ccc(F)c(F)c2)ccc1C(=O)O [Example 7, 3-({[2-carboxy-5-(2H-1,2,3-triazol-4-yl)phenyl]methyl}amino)-3′,4′-difluoro-[1,1′-biphenyl]-4-carboxylic acid]	–
< 500 nM	–	O=C(O)c1ccc2c(c1)C(=O)N(c1cc(-c3ccc(F)cc3F)ccc1C(=O)O)C2=O [Example 53]	–
5000 to 20000 nM	–	O=C(OCCN1CCCC1)c1cc(-c2ccccc2)ccc1N1C(=O)c2ccc(-c3c[nH]nn3)cc2C1=O [Compound 79, 4-[1,3-Dioxo-5-(1H-[1,2,3]triazol-4-yl)-1,3-dihydroisoindol-2-yl]biphenyl-3-carboxylic acid 2-pyrrolidin-1-yl-ethyl ester]	–
5000 to 20000 nM	–	COc1ccc(-c2c(C)sc(N3C(=O)c4ccc(C(=O)N[C@@H](CCC(N)=O)C(=O)O)cc4C3=O)c2C#N)cc1 [Example 21]	–
2000 to 5000 nM	–	CN(C)S(=O)(=O)c1cc(-c2cnn[nH]2)c(Cl)cc1C(=O)Nc1cc(-c2ccc(F)c(F)c2)ccc1C(=O)O [Example 26, 3-(5-chloro-2-(N,N-dimethylsulfamoyl)-4-(1H-1,2,3-triazol-5-yl)benzamido)-3′,4′-difluoro-[1,1′-biphenyl]-4-carboxylic acid]	–
< 20000 nM	–	NC(=O)c1ccc(-c2ccc(F)c(F)c2)cc1N1Cc2ccc(-c3c[nH]nn3)cc2C1=O [Compound 113, 3′,4′-Difluoro-3-[1-oxo-6-(1H-[1,2,3]triazol-4-yl)-1,3-dihydroisoindol-2-yl]biphenyl-4-carboxylic acid amide]	–
< 500 nM	–	O=C(O)c1cc(C(=O)O)c(C(=O)Nc2cc(-c3ccc(Cl)cc3Cl)ccc2C(=O)O)cc1O [Example 43, 4-({4-carboxy-2′,4′-dichloro-[1,1′-biphenyl]-3-yl}carbamoyl)-6-hydroxybenzene-1,3-dicarboxylic acid]	–
2000 to 5000 nM	–	CN(C)C(=O)c1cc(O)c(C(=O)N=S(C)(C)=O)cc1C(=O)Nc1cc(-c2ccc(Cl)cc2Cl)ccc1C(=O)O [Example 42, 2′,4′-dichloro-3-(5-((dimethyl(oxo)-λ^6-sulfanylidene)carbamoyl)-2-(dimethylcarbamoyl)-4-hydroxybenzamido)-[1,1′-biphenyl]-4-carboxylic acid]	–

Continued, compound first:

Compound	IC50 [1]	IC50 [2]	Protection factors (neurons)
CC(C)OC(=O)c1ccc(-c2ccc(F)c(F)c2)cc1N1Cc2ccc(-c3cn[nH]n3)cc2C1=O	–	–	1.43
O=C(O)c1cc(C(=O)O)c(C(=O)Nc2cc(-c3ccc(Cl)cc3Cl)ccc2C(=O)O)cc1O [4-({4-carboxy-2′,4′-dichloro-[1,1′-biphenyl]-3-yl}carbamoyl)-6-hydroxybenzene-1,3-dicarboxylic acid]	–	–	8.07
O=C(O)c1cc2c(cc1O)C(=O)N(c1cc(-c3ccc(F)c(F)c3)ccc1C(=O)O)C2=O [Compound 144a, 2-(4-Carboxy-3′,4′-difluoro[1,1′-biphenyl]-3-yl)-6-hydroxy-1,3-dioxo-2,3-dihydro-1H-isoindole-5-carboxylic acid]	< 500 nM	< 500 nM	–
O=C(O)c1ccc2c(c1)C(=O)N(c1cc(-c3ccc(F)c(F)c3)ccc1C(=O)O)C2=O [Compound 138, 2-(4-Carboxy-3′,4′-difluoro[1,1′-biphenyl]-3-yl)-1,3-dioxo-2,3-dihydro-1H-isoindole-5-carboxylic acid]	< 500 nM	< 500 nM	–
Cc1noc(C)c1Cn1cc(C#N)c2cc(Oc3ccc(NC(=O)[C@@H]4CCCN4)cc3)ccc21 [(2S)-N-[4-({3-cyano-1-[(3,5-dimethyl-1,2-oxazol-4-yl)methyl]-1H-indol-5-yl}oxy)phenyl]pyrrolidine-2-carboxamide]	–	–	1.68
CC(C)Cn1cc(C#N)c2cc(Oc3ccc(NC(=O)[C@@H]4CCCN4)cc3)ccc21 [(2S)-N-(4-{[3-cyano-1-(2-methylpropyl)-1H-indol-5-yl]oxy]phenyl)pyrrolidine-2-carboxamide]	–	–	1.97
CC1(C)CCN(c2ccc(C(=O)O)c(NC(=O)c3cc(O)c(C(=O)O)cc3C(=O)O)c2)CC1 [4-{[2-carboxy-5-(4,4-dimethylpiperidin-1-yl)phenyl]carbamoyl}-6-hydroxybenzene-1,3-dicarboxylic acid]	–	–	4.33
CCOC(=O)c1ccc(-c2ccc(F)c(F)c2)cc1N1Cc2ccc(-c3cnn[nH]3)cc2C1=O [compound 166, ethyl 3′,4′-difluoro-3-[1-oxo-6-(1H-1,2,3-triazol-5-yl)-2,3-dihydro-1H-isoindol-2-yl][1,1′-biphenyl]-4-carboxylate]	< 20000 nM	< 20000 nM	–
CCOC(=O)c1ccc(-c2ccc(F)c(F)c2)cc1N1Cc2ccc(-c3cn[nH]n3)cc2C1=O	–	–	2.35
O=C(O)c1ccc(-c2ccc(F)c(F)c2)cc1N1Cc2ccc(-c3cn[nH]n3)cc2C1=O	–	–	12.17
CN(C)CCOC(=O)c1ccc(-c2ccc(Cl)cc2Cl)cc1NC(=O)c1ccc(C(=O)N=S(C)(C)=O)cc1C(=O)O	–	–	1.43
O=C(O)c1cc2c(cc1O)C(=O)N(c1cc(-c3ccc(F)c(F)c3)ccc1C(=O)O)C2=O	–	–	2.15
O=C(O)c1ccc(-c2ccc(F)c(F)c2)cc1N1C(=O)c2cc(Cl)c(-c3cn[nH]n3)cc2C1=O	–	–	1.15
CC1(C)CCC(c2ccc(C(=O)O)c(NC(=O)c3cc(C(=O)O)c(O)cc3C(=O)O)c2)CC1 [2-{[2-carboxy-5-(4,4-dimethylcyclohexyl)phenyl]carbamoyl}-5-hydroxybenzene-1,4-dicarboxylic acid]	–	–	2.05
O=C(O)c1ccc(-c2ccccc2)cc1N1Cc2ccc(-c3c[nH]nn3)cc2C1=O [Compound 92, 3-[1-Oxo-6-(1H-[1,2,3]triazol-4-yl)-1,3-dihydroisoindol-2-yl]biphenyl-4-carboxylic Acid]	2000 to 5000 nM	–	–
O=C(O)c1ccc2c(c1)C(=O)N(c1cc(-c3ccc(Cl)cc3Cl)ccc1C(=O)O)C2=O	–	–	1.75
O=C(O)c1ccc(-c2ccc(F)c(F)c2)cc1N1Cc2ccc(CO)cc2C1=O [compound 158, 3′,4′-difluoro-3-(6-(hydroxymethyl)-1-oxoisoindolin-2-yl)biphenyl-4-carboxylic acid]	5000 to 20000 nM	–	–
O=C(O)c1cc(-c2cnn[nH]2)ccc1CNc1cc(-c2ccc(F)c(F)c2)ccc1C(=O)O [Example 6, 3-({[2-carboxy-4-(2H-1,2,3-triazol-4-yl)phenyl]methyl}amino)-3′,4′-difluoro-[1,1′-biphenyl]-4-carboxylic acid]	< 500 nM	–	–
O=C(O)c1cc(C(=O)O)c(C(=O)Nc2cc(-c3ccc(Cl)cc3Cl)ccc2C(=O)O)cc1F [Example 59, 4-({4-carboxy-2′,4′-dichloro-[1,1′-biphenyl]-3-yl}carbamoyl)-6-fluorobenzene-1,3-dicarboxylic acid]	< 500 nM	–	–
